pIC50: −log10 of the molar value.
Experiments:
[1] = molecular target: T1, Amine oxidase [flavin-containing] A (Homo sapiens, UniProt P21397); experiment: Inhibition of recombinant human MAO-A expressed in baculovirus infected BTI insect cells at 10 uM using kynuramine as substrate incubated for 30 mins by fluorescence assay relative to control; settings: 0.5 h
T1 sequence (P21397 whole entry): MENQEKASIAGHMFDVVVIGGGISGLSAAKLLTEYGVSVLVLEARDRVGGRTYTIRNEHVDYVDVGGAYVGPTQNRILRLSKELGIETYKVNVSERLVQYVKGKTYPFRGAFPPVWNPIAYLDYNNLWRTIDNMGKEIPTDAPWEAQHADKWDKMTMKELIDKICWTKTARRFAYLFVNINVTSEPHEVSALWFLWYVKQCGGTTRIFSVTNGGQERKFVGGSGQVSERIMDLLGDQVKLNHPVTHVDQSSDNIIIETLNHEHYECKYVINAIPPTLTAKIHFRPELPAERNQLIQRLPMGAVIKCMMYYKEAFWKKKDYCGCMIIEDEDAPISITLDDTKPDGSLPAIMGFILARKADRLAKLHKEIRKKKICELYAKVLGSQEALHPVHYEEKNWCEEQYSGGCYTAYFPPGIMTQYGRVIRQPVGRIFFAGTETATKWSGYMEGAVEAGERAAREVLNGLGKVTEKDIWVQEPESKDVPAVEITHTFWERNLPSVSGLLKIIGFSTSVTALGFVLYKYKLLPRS

[2] = molecular target: Acetylcholinesterase (Electrophorus electricus, UniProt O42275); experiment: Inhibition of Electrophorus electricus AChE using acetylthiocholine iodide as substrate measured after 15 mins by Ellman's method
[3] = molecular target: Amyloid-beta precursor protein (Homo sapiens) (UniProt P05067); experiment: Inhibition of self-induced aggregation of HFIP-treated human amyloid beta (1 to 42 residues) at 25 uM after 24 hrs by thioflavin T-based fluorometric assay relative to control
[4] = Antioxidant activity assessed as inhibition of AAPH-induced peroxyl radical generation at 5 uM measured as trolox equivalent preincubated for 15 mins followed by AAPH addition measured every 60 secs for 90 mins by ORAC-FL assay; assay type: functional
[5] = molecular target: T2, Acetylcholinesterase (Rattus norvegicus, UniProt P37136); experiment: Inhibition of AChE in rat brain cortex homogenates using acetylthiocholine iodide as substrate in presence of BuChE inhibitor tetraisopropyl pyrophosphoramide measured after 15 mins by Ellman's method
T2 sequence (P37136 whole entry): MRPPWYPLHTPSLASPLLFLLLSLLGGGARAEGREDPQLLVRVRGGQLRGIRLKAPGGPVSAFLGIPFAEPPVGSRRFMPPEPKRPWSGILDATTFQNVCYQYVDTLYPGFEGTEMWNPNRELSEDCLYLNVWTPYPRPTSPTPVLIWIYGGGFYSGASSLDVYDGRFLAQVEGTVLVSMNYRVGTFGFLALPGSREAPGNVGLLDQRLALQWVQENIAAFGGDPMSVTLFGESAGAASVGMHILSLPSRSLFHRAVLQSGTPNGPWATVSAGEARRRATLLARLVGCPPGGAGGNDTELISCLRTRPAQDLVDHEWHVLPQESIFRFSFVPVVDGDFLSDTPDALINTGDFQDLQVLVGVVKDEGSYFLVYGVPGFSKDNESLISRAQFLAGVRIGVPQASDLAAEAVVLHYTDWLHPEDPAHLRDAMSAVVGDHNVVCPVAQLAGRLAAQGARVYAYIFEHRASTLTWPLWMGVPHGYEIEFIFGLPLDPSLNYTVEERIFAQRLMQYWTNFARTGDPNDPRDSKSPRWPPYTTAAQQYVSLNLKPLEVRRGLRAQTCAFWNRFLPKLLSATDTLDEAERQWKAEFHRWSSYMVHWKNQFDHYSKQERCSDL

[6] = Inhibition of Cu2+-mediated aggregation of human amyloid beta (1 to 42 residues) at 25 uM after 24 hrs by thioflavin T-based fluorometric assay relative to control; assay type: functional
[7] = molecular target: T3, Amine oxidase [flavin-containing] B (Homo sapiens, UniProt P27338); experiment: Inhibition of recombinant human MAO-B expressed in baculovirus infected BTI insect cells at 10 uM using kynuramine as substrate incubated for 30 mins by fluorescence assay relative to control; settings: 0.5 h
T3 sequence (P27338 whole entry): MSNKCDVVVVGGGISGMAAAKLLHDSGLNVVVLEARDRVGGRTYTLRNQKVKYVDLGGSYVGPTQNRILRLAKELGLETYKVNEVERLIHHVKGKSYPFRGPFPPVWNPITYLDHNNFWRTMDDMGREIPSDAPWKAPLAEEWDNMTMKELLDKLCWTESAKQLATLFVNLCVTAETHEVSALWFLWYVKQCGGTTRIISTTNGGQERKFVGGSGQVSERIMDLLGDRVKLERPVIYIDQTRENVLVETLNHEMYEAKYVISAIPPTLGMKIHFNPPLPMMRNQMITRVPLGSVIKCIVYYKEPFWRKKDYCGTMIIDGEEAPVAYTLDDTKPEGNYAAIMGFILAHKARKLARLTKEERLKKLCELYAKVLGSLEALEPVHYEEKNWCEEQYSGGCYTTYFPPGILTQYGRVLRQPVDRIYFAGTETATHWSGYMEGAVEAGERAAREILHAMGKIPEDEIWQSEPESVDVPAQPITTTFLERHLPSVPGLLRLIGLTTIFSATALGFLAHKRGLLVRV

[8] = molecular target: butyrylcholinesterase (BuChE) (Rattus norvegicus, UniProt Q9JKC1); experiment: Inhibition of BuChE in rat serum at 50 uM using butyrylthiocholine as substrate measured after 15 mins by Ellman's method relative to control; settings: probe butyrylthiocholine
[9] = molecular target: Acetylcholinesterase (Homo sapiens, UniProt P22303); experiment: Inhibition of human erythrocyte AChE using acetylthiocholine iodide as substrate measured after 15 mins by Ellman's method
[10] = molecular target: T4, Acetylcholinesterase (Rattus norvegicus) (UniProt P37136); experiment: Inhibition of AChE in rat brain cortex homogenates at 50 uM using acetylthiocholine iodide as substrate in presence of BuChE inhibitor tetraisopropyl pyrophosphoramide measured after 15 mins by Ellman's method relative to control
T4 sequence (whole entry): T2 sequence (P37136 whole entry)

[11] = molecular target: Acetylcholinesterase (Electrophorus electricus) (UniProt O42275); experiment: Inhibition of Electrophorus electricus AChE at 50 uM using acetylthiocholine iodide as substrate measured after 15 mins by Ellman's method relative to control
Sequence of Acetylcholinesterase (Electrophorus electricus) (O42275 24-633 limits assumed): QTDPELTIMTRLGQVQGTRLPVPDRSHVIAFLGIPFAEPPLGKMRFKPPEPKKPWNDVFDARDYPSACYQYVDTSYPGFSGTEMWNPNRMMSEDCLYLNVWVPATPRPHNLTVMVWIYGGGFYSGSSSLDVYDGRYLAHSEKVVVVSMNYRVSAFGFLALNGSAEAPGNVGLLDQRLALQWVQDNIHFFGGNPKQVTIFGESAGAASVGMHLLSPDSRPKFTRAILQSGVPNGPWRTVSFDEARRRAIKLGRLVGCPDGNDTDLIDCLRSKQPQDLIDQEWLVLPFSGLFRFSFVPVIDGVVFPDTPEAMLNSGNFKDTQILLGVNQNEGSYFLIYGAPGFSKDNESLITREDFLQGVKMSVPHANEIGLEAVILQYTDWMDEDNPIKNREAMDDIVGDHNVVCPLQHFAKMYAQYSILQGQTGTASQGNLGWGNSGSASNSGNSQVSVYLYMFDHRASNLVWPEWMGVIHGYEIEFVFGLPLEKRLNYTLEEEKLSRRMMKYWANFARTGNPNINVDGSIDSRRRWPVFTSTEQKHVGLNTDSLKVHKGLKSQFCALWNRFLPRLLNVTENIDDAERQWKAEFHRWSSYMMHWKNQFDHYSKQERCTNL

Sequence of Acetylcholinesterase (Electrophorus electricus, UniProt O42275) (O42275 whole entry, the tested form may be a part): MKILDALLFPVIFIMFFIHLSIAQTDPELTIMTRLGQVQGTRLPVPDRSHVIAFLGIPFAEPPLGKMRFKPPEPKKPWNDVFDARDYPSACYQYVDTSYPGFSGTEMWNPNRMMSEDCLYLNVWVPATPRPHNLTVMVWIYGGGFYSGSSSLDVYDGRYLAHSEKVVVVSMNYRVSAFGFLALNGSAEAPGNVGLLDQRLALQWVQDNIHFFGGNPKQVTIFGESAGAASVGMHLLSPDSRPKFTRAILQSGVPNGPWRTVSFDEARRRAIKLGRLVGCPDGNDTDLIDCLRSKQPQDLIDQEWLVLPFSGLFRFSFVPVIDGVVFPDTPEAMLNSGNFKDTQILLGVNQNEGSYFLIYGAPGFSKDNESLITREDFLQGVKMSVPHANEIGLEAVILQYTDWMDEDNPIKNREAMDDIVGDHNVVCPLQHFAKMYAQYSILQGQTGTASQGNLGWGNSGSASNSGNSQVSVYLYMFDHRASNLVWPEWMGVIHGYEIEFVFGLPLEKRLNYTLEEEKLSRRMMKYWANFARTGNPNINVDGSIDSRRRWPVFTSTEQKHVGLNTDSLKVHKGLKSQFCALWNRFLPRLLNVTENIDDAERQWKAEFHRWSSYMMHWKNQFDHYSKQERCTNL
Sequence of Amyloid-beta precursor protein (Homo sapiens) (P05067 whole entry, the tested form may be a part): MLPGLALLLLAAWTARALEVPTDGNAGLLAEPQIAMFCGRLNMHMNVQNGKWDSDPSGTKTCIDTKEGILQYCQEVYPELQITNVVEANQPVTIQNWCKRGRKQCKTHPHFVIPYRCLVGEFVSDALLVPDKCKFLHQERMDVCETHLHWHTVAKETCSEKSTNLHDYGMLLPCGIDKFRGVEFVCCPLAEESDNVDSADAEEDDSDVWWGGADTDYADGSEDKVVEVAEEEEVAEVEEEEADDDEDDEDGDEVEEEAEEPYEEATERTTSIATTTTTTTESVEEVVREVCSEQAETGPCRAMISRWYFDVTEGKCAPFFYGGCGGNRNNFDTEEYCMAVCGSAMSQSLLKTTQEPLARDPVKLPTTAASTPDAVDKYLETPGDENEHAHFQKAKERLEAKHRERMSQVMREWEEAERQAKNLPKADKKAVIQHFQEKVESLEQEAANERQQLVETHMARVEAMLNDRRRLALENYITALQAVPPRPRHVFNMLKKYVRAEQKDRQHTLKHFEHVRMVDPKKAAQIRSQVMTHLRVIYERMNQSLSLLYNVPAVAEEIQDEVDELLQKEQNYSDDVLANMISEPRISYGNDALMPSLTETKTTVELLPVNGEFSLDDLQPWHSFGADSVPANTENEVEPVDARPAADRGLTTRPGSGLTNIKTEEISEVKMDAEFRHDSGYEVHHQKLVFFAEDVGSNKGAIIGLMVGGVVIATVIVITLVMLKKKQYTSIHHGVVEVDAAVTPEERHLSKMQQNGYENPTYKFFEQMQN
Sequence of butyrylcholinesterase (BuChE) (Q9JKC1 whole entry): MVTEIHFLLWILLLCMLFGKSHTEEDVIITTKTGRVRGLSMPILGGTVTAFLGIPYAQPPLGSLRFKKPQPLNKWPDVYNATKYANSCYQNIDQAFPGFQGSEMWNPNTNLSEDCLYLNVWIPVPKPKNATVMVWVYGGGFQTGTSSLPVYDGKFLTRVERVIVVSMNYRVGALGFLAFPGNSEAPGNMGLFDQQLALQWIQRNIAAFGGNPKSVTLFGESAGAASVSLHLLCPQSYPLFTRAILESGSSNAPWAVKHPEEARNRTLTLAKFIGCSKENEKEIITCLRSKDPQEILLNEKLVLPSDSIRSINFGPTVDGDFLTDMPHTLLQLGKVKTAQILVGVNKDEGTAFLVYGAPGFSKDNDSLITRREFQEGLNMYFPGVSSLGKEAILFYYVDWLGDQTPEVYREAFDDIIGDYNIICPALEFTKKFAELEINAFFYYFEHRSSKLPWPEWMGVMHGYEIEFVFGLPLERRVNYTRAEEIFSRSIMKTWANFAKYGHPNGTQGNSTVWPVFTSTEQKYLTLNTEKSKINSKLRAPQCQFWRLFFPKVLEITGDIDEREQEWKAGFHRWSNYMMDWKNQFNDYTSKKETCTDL
Sequence of Acetylcholinesterase (Homo sapiens, UniProt P22303) (P22303 whole entry): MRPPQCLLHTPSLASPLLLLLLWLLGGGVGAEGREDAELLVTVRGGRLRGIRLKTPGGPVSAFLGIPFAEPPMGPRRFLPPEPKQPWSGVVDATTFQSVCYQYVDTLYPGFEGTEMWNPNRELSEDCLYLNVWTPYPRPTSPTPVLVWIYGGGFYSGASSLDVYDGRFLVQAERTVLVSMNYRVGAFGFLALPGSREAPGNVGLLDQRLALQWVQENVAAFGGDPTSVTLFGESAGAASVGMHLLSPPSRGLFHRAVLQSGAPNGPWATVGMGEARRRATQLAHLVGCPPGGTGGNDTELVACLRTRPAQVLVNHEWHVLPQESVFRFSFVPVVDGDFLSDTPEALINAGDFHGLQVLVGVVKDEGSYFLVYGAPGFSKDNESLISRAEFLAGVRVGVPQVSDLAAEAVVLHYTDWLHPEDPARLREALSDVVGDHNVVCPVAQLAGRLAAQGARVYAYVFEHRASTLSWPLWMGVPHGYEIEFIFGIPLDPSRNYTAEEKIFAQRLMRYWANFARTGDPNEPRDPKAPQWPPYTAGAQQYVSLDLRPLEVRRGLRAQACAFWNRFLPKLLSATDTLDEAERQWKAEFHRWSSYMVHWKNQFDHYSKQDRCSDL

| SMILES | inhibition at 10 µM [1] [%] | pIC50 [2] | inhibition [3] [%] | Activity [4] [equiv] | pIC50 [5] | inhibition [6] [%] | inhibition at 10 µM [7] [%] | inhibition at 0.25 h, 50 µM [8] [%] | pIC50 [9] | inhibition [10] [%] | inhibition [11] [%] |
| --- | --- | --- | --- | --- | --- | --- | --- | --- | --- | --- | --- |
| CCN(Cc1ccc(/C=C2\Oc3cc(OC)c(OC)cc3C2=O)cc1O)Cc1ccccc1OC | 9.7 | 4.43 | 74.9 | 1.47 | 4.35 | 71.2 | 26.4 | 5.21 | – | – | – |
| CCN1CCN(Cc2ccc(/C=C3\Oc4cc(OC)c(OC)cc4C3=O)cc2O)CC1 | 15.1 | 4.93 | 49.1 | 1.61 | 4.62 | 39.7 | 2.6 | < 5 | 4.49 | – | – |
| COc1cc2c(cc1OC)C(=O)/C(=C/c1ccc(O)cc1)O2 | 12.1 | 4.19 | 15.7 | 1.52 | 3.53 | 26.7 | 36.1 | < 5 | – | – | – |
| COc1cc2c(cc1OC)C(=O)/C(=C/c1ccc(CN(C)C)c(O)c1)O2 | 20.2 | 5.05 | 46.9 | 2.02 | 4.59 | 32.2 | 2.23 | < 5 | 4.61 | – | – |
| CCN(Cc1ccc(N(C)C)cc1)Cc1ccc(/C=C2\Oc3cc(OC)c(OC)cc3C2=O)cc1O | 6.8 | 3.37 | 80.5 | 2.02 | 3.54 | 68.5 | 19.2 | < 5 | – | – | – |
| COc1cc2c(cc1OC)C(=O)/C(=C/c1ccc(CN3CCN(Cc4ccccc4)CC3)c(O)c1)O2 | 15.3 | – | 41.8 | 1.01 | – | 38.7 | 6.9 | < 5 | – | < 5 | < 5 |
| CCN(Cc1ccccc1)Cc1ccc(/C=C2\Oc3cc(OC)c(OC)cc3C2=O)cc1O | 17 | 4.45 | 72.5 | 1.17 | 4.03 | 60.9 | 23.9 | < 5 | – | – | – |
| COc1ccccc1CN(C)Cc1ccc(/C=C2\Oc3cc(OC)c(OC)cc3C2=O)cc1O | 16.3 | 4.54 | 55.1 | 1.35 | 4.13 | 55.8 | 8.4 | < 5 | – | – | – |
| COc1cc(/C=C/C(=O)CC(=O)/C=C/c2ccc(O)c(OC)c2)ccc1O | – | – | – | – | – | 67.2 | – | – | – | – | – |
| CCN(CC)Cc1ccc(/C=C2\Oc3cc(OC)c(OC)cc3C2=O)cc1O | 22.7 | 6.31 | 47.5 | 2.06 | 6.97 | 23.6 | 7.2 | < 5 | 6.15 | – | – |
| COc1cc2c(cc1OC)C(=O)/C(=C/c1cccc(O)c1)O2 | 17.2 | 4.44 | 33.6 | 1.51 | 3.88 | 28.9 | 37 | < 5 | – | – | – |
| COc1cc2c(cc1OC)C(=O)/C(=C/c1ccc(CN3CCOCC3)c(O)c1)O2 | 12.1 | 4.69 | 31.5 | 1.58 | 5.06 | 28.5 | 3.3 | < 5 | 5.22 | – | – |
| COc1cc2c(cc1OC)C(=O)/C(=C/c1ccc(CN3CCCC3)c(O)c1)O2 | 62.9 | 5.57 | 57.2 | 1.79 | 6.61 | 38.8 | 37.9 | 19 | 5.88 | – | – |
| COc1cc2c(cc1OC)C(=O)/C(=C/c1ccc(CN3CCN(C)CC3)c(O)c1)O2 | 9.2 | 4.92 | 38.6 | 1.78 | 4.79 | 35.1 | 1 | < 5 | 4.85 | – | – |
| COc1cc2c(cc1OC)C(=O)/C(=C/c1ccc(CN(C)Cc3ccccc3)c(O)c1)O2 | 19.4 | 5.04 | 51.5 | 1.62 | 4.70 | 70.1 | 17.8 | < 5 | 4.58 | – | – |

— ChEMBL document CHEMBL4002586, “Aurone Mannich base derivatives as promising multifunctional agents with acetylcholinesterase inhibition, anti-β-amyloid aggragation and neuroprotective properties for the treatment of Alzheimer's disease” (Eur J Med Chem, 2017)
